Test results from patent publication US20240174714A1, “TREATMENT OF SKIN DISORDERS” (priority 2021, published 2024).
Values after ≈ are worked out from the molar mass of the structure shown. Read-outs that look alike come from different tables or passages of the source. Numbered stars: 1 amine (or outer) side, 2 acyl side, 3 side chain; on linkers, the order of the positions; unused ones are H or OH. Square brackets hold non-standard residues; d marks the D form. Peptide text beside a SMILES is read from it. * marks the point of attachment. X13 = O=C([C@H](Cc1nc2ccc(F)cc2s1)N[*:1])[*:2]; X14 = COc1ccc(C[C@H](N[*:1])C(=O)[*:2])cc1Cl; NH((S)CH(Me)CH2NMe2) = C[C@@H](CN(C)C)N*; NH(1-CH2NMe2-cBu) = CN(C)CC1(N*)CCC1; Gly(octyl) = CCCCCCCC[C@H](N)C(=O)O; Oxazole4CO(2-Me) = Cc1nc(C(=O)*)co1; Benzoyl(4-F) = O=C(c1ccc(F)cc1)*; hCha = N[C@@H](CCC1CCCCC1)C(=O)O; X8 = O=C(c1coc(-c2ccccc2)n1)*; X2 = C1CCN(CC2(N*)CCC2)CC1; Aib = CC(C)(N)C(=O)O; βAla = NCCC(=O)O

Legend:
[1] = test system: Staphylococcus aureus ATCC BAA-1556, USA300 MRSA; assay: microbe, parasite or virus in culture; format: cell-based; details: ATCC BAA-1556
Method: Pre-formulated compound solution was diluted in 100% DMSO to prepare a 1.6 mg/mL working stock solution. […] The concentration range was 0.032 to 32 μg/mL.

[2] = test system: Staphylococcus aureus ATCC 43300, MRSA; format: cell-based; details: ATCC 43300, 18 h
Method: The antibacterial activity of inventive compounds was evaluated in duplicate in a further Minimum Inhibitory Concentration (MIC) assay.
Bacteria were cultured in Cation-adjusted Mueller Hinton broth (CAMHB) at 37° C. overnight. A sample of each culture was then diluted 40-fold in fresh broth and incubated at 37° C. for 1.5-3 h. The resultant mid-log phase cultures were diluted (CFU/mL measured by OD600), then added to each well of the compound containing plates, giving a cell density of 5×10^5 CFU/mL and a total volume of 50 μL. All the plates were covered and incubated at 37° C. for 18 h without shaking.
Samples were prepared in DMSO and serially diluted 2 fold 8 times. Each sample concentration was prepared in 384-well plates, non-binding surface plate (NBS; Corning 3640) for the bacterial strain ATCC 43300, MRSA. The final DMSO concentration was at a maximum of 0.5%.
Inhibition of bacterial growth was determined measuring absorbance at 600 nm (OD600), using a Tecan M1000 Pro monochromator plate reader. The percentage of growth inhibition was calculated for each well, using the negative control (media only) and positive control (bacteria without inhibitors) on the same plate as references. […] Vancomycin was used as positive bacterial inhibitor standards.

[3] = test system: axenic Leishmania donovani MHOM-ET-67/L82 amastigotes; assay: In vitro antiprotozoal assay, axenic amastigotes; format: cell-based; details: axenic amastigotes; read-out: L.don.ax. IC50
Method: (§3) The testing of the inventive compounds against Leishmania donovani (strain MHOM/ET/67/L82) was performed in 96 well plates at concentrations in serial dilutions. Tests were done in triplicate.

[4] = test system: intracellular Leishmania donovani MHOM-ET-67/L82 amastigotes; assay: In vitro antiprotozoal assay, intracellular amastigotes; format: cell-based; details: intracellular amastigotes; read-out: L.don.InMac IC50
Method: as §3

rat myoblast cells (L6) = assay: Cytotoxicity assay (Alamar Blue) on L6-cells; format: cell-based
Method: (§1) Tests were done in triplicate.
(§2) The plates were incubated for additional 2 h.

[5] = Cytotoxicity assay (Alamar Blue) on L6-cells; format: cell-based, rat; details: rat
Method: as §1, §2

| SMILES | MIC [1] | MIC [2] | IC50 [3] | IC50 [4] | IC50 at 68 h [5] | also measured |
| --- | --- | --- | --- | --- | --- | --- |
| CCCCCCCC[C@H](NC(=O)[C@@H]1CCCN1C(=O)c1coc(-c2ccccc2)n1)C(=O)N[C@@H](CC(C)C)C(=O)NC(C)(C)C(=O)N[C@@H](CC(C)C)C(=O)N[C@@H](CC(C)C)C(=O)NC(C)(C)C(=O)NC(C)(C)C(=O)NCCC(=O)N[C@@H](C)CN(C)C [Compound 5906, (2S)-N-[(1S)-1-[(1-{[(1S)-1-{[(1S)-1-{[1-({1-[(2-{[(2S)-1-(dimethylamino)propan-2-yl]carbamoyl}ethyl)carbamoyl]-1-methylethyl}carbamoyl)-1-methylethyl]carbamoyl}-3-methylbutyl]carbamoyl}-3-methylbutyl]carbamoyl}-1-methylethyl)carbamoyl]-3-methylbutyl]-2-{[(2S)-1-(2-phenyl-1,3-oxazole-4-carbonyl)pyrrolidin-2-yl]formamido}decanamide] (X8-P[Gly(octyl)]L[Aib]LL[Aib][Aib][βAla]-{NH((S)CH(Me)CH2NMe2)}) |  |  | 3.7 nM | 14.1 nM |  | IC50 (rat myoblast cells (L6)): 445 nM |
| Cc1nc(C(=O)N2CCC[C@H]2C(=O)N[C@@H](Cc2c[nH]c3ccccc23)C(=O)N[C@@H](CC(C)C)C(=O)NC(C)(C)C(=O)N[C@@H](CC(C)C)C(=O)N[C@@H](CC(C)C)C(=O)NC(C)(C)C(=O)NC(C)(C)C(=O)NCCC(=O)NC2(CN(C)C)CCC2)co1 [Compound 6779, (2S)-N-(1-{[(1S)-1-{[(1S)-1-({1-[(1-{[2-({1-[(dimethylamino)methyl]cyclobutyl}carbamoyl)ethyl]carbamoyl}-1-methylethyl)carbamoyl]-1-methylethyl}carbamoyl)-3-methylbutyl]carbamoyl}-3-methylbutyl]carbamoyl}-1-methylethyl)-2-[(2S)-3-(1H-indol-3-yl)-2-{[(2S)-1-(2-methyl-1,3-oxazole-4-carbonyl)pyrrolidin-2-yl]formamido}propanamido]-4-methylpentanamide] (HELM PEPTIDE1{[Cc1nc(C(=O)[*:2])co1].P.W.L.[Aib].L.L.[Aib].[Aib].[bAla].[CN(C)CC1(N[*:1])CCC1]}$$$$V2.0) |  | 8 µg/mL (≈ 6.74 µM) | 27 nM | 203 nM | 6680 nM |  |
| Cc1nc(C(=O)N2CCC[C@H]2C(=O)N[C@@H](CC2CCCCC2)C(=O)N[C@@H](CC(C)C)C(=O)NC(C)(C)C(=O)N[C@@H](CC(C)C)C(=O)N[C@@H](CC(C)C)C(=O)NC(C)(C)C(=O)NC(C)(C)C(=O)NCCC(=O)NC2(CN(C)C)CCC2)co1 [Compound 7059, (2S)-2-[(2S)-3-cyclohexyl-2-{[(2S)-1-(2-methyl-1,3-oxazole-4-carbonyl)pyrrolidin-2-yl]formamido}propanamido]-N-(1-{[(1S)-1-{[(1S)-1-({1-[(1-{[2-({1-[(dimethylamino)methyl]cyclobutyl}carbamoyl)ethyl]carbamoyl}-1-methylethyl)carbamoyl]-1-methylethyl}carbamoyl)-3-methylbutyl]carbamoyl}-3-methylbutyl]carbamoyl}-1-methylethyl)-4-methylpentanamide] (HELM PEPTIDE1{[Cc1nc(C(=O)[*:2])co1].P.[Cha].L.[Aib].L.L.[Aib].[Aib].[bAla].[CN(C)CC1(N[*:1])CCC1]}$$$$V2.0) | 4 µg/mL (≈ 3.47 µM) | 32 µg/mL (≈ 27.7 µM) | 1.3 nM |  | 6850 nM |  |
| COc1ccc(C[C@H](NC(=O)[C@@H]2CCCN2C(=O)c2ccc(F)cc2)C(=O)N[C@@H](CC(C)C)C(=O)NC(C)(C)C(=O)N[C@@H](CC(C)C)C(=O)N[C@@H](CC(C)C)C(=O)NC(C)(C)C(=O)NC(C)(C)C(=O)NCCC(=O)NC2(CN(C)C)CCC2)cc1Cl [Compound 7846, (2S)-2-[(2S)-3-(3-chloro-4-methoxyphenyl)-2-{[(2S)-1-(4-fluorobenzoyl)pyrrolidin-2-yl]formamido}propanamido]-N-(1-{[(1S)-1-{[(1S)-1-({1-[(1-{[2-({1-[(dimethylamino)methyl]cyclobutyl}carbamoyl)ethyl]carbamoyl}-1-methylethyl)carbamoyl]-1-methylethyl}carbamoyl)-3-methylbutyl]carbamoyl}-3-methylbutyl]carbamoyl}-1-methylethyl)-4-methylpentanamide] ({Benzoyl(4-F)}-P[X14]L[Aib]LL[Aib][Aib][βAla]-{NH(1-CH2NMe2-cBu)}) |  | 4 µg/mL (≈ 3.27 µM) |  |  |  |  |
| CC(C)C[C@H](NC(=O)[C@H](Cc1nc2ccc(F)cc2s1)NC(=O)[C@@H]1CCCN1C(=O)c1ccc(F)cc1)C(=O)NC(C)(C)C(=O)N[C@@H](CC(C)C)C(=O)N[C@@H](CC(C)C)C(=O)NC(C)(C)C(=O)NC(C)(C)C(=O)NCCC(=O)NC1(CN(C)C)CCC1 [Compound 7848, (2S)-N-(1-{[(1S)-1-{[(1S)-1-({1-[(1-{[2-({1-[(dimethylamino)methyl]cyclobutyl}carbamoyl)ethyl]carbamoyl}-1-methylethyl)carbamoyl]-1-methylethyl}carbamoyl)-3-methylbutyl]carbamoyl}-3-methylbutyl]carbamoyl}-1-methylethyl)-2-[(2S)-3-(6-fluoro-1,3-benzothiazol-2-yl)-2-{[(2S)-1-(4-fluorobenzoyl)pyrrolidin-2-yl]formamido}propanamido]-4-methylpentanamide] ({Benzoyl(4-F)}-P[X13]L[Aib]LL[Aib][Aib][βAla]-{NH(1-CH2NMe2-cBu)}) |  | 4 µg/mL (≈ 3.24 µM) |  |  |  |  |
| COc1cc([C@@H]2c3cc4c(cc3[C@H](O)[C@H]3COC(=O)[C@H]23)OCO4)cc(OC)c1OC [Podophyllotoxin, reference compound] |  |  |  |  |  | IC50 (rat myoblast cells (L6); Rattus norvegicus, Myoblast, read-out: IC50 Concurrent (nM)): 19.3 nM; IC50 (rat myoblast cells (L6); Rattus norvegicus, Myoblast, read-out: IC50 of reference drug): 50 ± 10 nM |

Now from value to compound, other results behind:

| MIC [1] | MIC [2] | IC50 [3] | IC50 [4] | SMILES | IC50 at 68 h [5] | also measured |
| --- | --- | --- | --- | --- | --- | --- |
| 16 µg/mL (≈ 14.6 µM) | 8 µg/mL (≈ 7.28 µM) |  |  | Cc1nc(C(=O)N2CCCC2C(=O)N[C@@H](CCC2CCCCC2)C(=O)N[C@@H](CC(C)C)C(=O)NC(C)(C)C(=O)N[C@@H](CC(C)C)C(=O)N[C@@H](CC(C)C)C(=O)NC(C)(C)C(=O)NC(C)(C)C(=O)NCCC(=O)NCCN)co1 (stereo in doubt) [Compound 7192, (2S)-N-(1-{[(1S)-1-{[(1S)-1-[(1-{[1-({2-[(2-aminoethyl)carbamoyl]ethyl}carbamoyl)-1-methylethyl]carbamoyl}-1-methylethyl)carbamoyl]-3-methylbutyl]carbamoyl}-3-methylbutyl]carbamoyl}-1-methylethyl)-2-[(2S)-4-cyclohexyl-2-{[(2S)-1-(2-methyl-1,3-oxazole-4-carbonyl)pyrrolidin-2-yl]formamido}butanamido]-4-methylpentanamide] |  |  |
| 4 µg/mL (≈ 3.43 µM) |  | 9.9 nM | 41.1 nM | Cc1nc(C(=O)N2CCC[C@H]2C(=O)N[C@@H](CCC2CCCCC2)C(=O)N[C@@H](CC(C)C)C(=O)NC(C)(C)C(=O)N[C@@H](CC(C)C)C(=O)N[C@@H](CC(C)C)C(=O)NC(C)(C)C(=O)NC(C)(C)C(=O)NCCC(=O)NC2(CN(C)C)CCC2)co1 [Compound 6025, (2S)-2-[(2S)-4-cyclohexyl-2-{[(2S)-1-(2-methyl-1,3-oxazole-4-carbonyl)pyrrolidin-2-yl]formamido}butanamido]-N-(1-{[(1S)-1-{[(1S)-1-({1-[(1-{[2-({1-[(dimethylamino)methyl]cyclobutyl}carbamoyl)ethyl]carbamoyl}-1-methylethyl)carbamoyl]-1-methylethyl}carbamoyl)-3-methylbutyl]carbamoyl}-3-methylbutyl]carbamoyl}-1-methylethyl)-4-methylpentanamide] ({Oxazole4CO(2-Me)}-P[hCha]L[Aib]LL[Aib][Aib][βAla]-{NH(1-CH2NMe2-cBu)}) |  | IC50 (rat myoblast cells (L6)): 1910 nM |
| 8 µg/mL (≈ 6.62 µM) | 8 µg/mL (≈ 6.62 µM) | 4.1 nM |  | Cc1nc(C(=O)N2CCC[C@H]2C(=O)N[C@@H](CCC2CCCCC2)C(=O)N[C@@H](CC(C)C)C(=O)NC(C)(C)C(=O)N[C@@H](CC(C)C)C(=O)N[C@@H](CC(C)C)C(=O)NC(C)(C)C(=O)NC(C)(C)C(=O)NCCC(=O)NC2(CN3CCCCC3)CCC2)co1 [Compound 6483, (2S)-2-[(2S)-4-cyclohexyl-2-{[(2S)-1-(2-methyl-1,3-oxazole-4-carbonyl)pyrrolidin-2-yl]formamido}butanamido]-4-methyl-N-(1-methyl-1-{[(1S)-3-methyl-1-{[(1S)-3-methyl-1-({1-methyl-1-[(1-methyl-1-{[2-({1-[(piperidin-1-yl)methyl]cyclobutyl}carbamoyl)ethyl]carbamoyl}ethyl)carbamoyl]ethyl}carbamoyl)butyl]carbamyl}butyl]carbamoyl}ethyl)pentanamide] ({Oxazole4CO(2-Me)}-P[hCha]L[Aib]LL[Aib][Aib][βAla]-X2) | 486 nM |  |
